From patent EP0091090A2, “Bipyridine substituted imidazolidene copper complex and its use in food-producing animals, and bipyridine, 2,2'-(2-imidazolidinylidene) di-copper complex and use in animals” (INTERNATIONAL MINERALS & CHEMICAL CORPORATION, priority 1982, dated 1983)

Tested on: rumen fluid batch culture
Experiment: Rumen fluid batch culture test: volatile fatty acid, gas (CH4 + H2), protein and amino acid accumulation (Example 2)
Type: cell-based, steers
Set-up: HFo (formate) / HAc (acetate) / HPr (propionate) / HiBu (isobutyrate) / HBu (butyrate) / HiVal (isovalerate) / Total / Caloric Value of H2 / Caloric Value of HFo / Caloric Value of HAc / Caloric Value of HPr / Caloric Value of HiBu / Caloric Value of HBu / Caloric Value of HiVal / Caloric Value of CH3: unit not given here
Settings: for Caloric Value of CH3 / Caloric Value of H2 / Caloric Value of HAc / Caloric Value of HBu / Caloric Value of HFo / Caloric Value of HPr / Caloric Value of HiBu / Caloric Value of HiVal / Caloric Value, Total (VFA's) / Total Cal in VFA & Gas: produced on Day 10; for CH4 produced on Day 10 / H2 produced on Day 10 / HAc (acetate) produced on Day 10 / HBu (butyrate) produced on Day 10 / HFo (formate) produced on Day 10 / HPr (propionate) produced on Day 10 / HiBu (isobutyrate) produced on Day 10 / HiVal (isovalerate) produced on Day 10 / Total VFA's produced on Day 10: total produced on Day 10
Protocol: The above Formula IV composition was tested to determine its effectiveness as a feed additive for ruminants. The initial tests were in rumen fluid batch culture systems to determine the effect of the compound on volatile fatty acid/methane ratios (VFA/CH4). […] Test Procedure: A 50/50 mixture of ground corn and ground alfalfa was used as the substrate for the subject rumen fluid batch culture test. The compound (Formula IV ) was present in the rumen fluid in three separate test samples at 8.33, 25 and 75 ppm, respectively. On day 1, rumen fluid was obtained from mature fistulated steers on 50/50 concentrate/roughage diets. The rumen fluid (RF) was strained through three layers of gauze cloth and equilibrated with C02 gas. Wheaton serum vials (125 ml) were prepared ahead with 20 ml continuous batch buffer and 100 mg 50/50 ground corn/ground alfalfa. Controls and compounds (dissolved in acetone) were set up according to desired levels. The vials were kept under C02 gas until 20 ml of the strained RF was added. The vials were sealed and incubated at 39°C for 24 hours in a hot water bath. On successive days, gas samples (0.1 ml) were drawn for gas chromatography analysis before transferring 20 ml of the batch culture to another vial containing 20 ml of buffer, 100 mg substrate, and the corresponding compound. The remaining 20 ml was inoculated with 2 ml 6N HC1 and centrifuged at 15,000 rpm for 15 minutes. Ether extracts were prepared for volatile fatty acid (VFA) analysis. Some minor adjustments were made in the termperatures on the Hewlett-Packard 5750 Gas-Liquid Chromatograph used for VFA analysis when the glass column used was changed from 1/4 inch diameter to 1/8 inch diameter. Injection Port = 220°C Column Oven = 170°C Flame Detector = 250°C Only 4 minutes was needed to record the sample instead of the previous 7 minutes.

[1] = all levels tested (8.33, 25 and 75 ppm), versus control

## 2,2'-(4,5-diphenyl-2H-imidazol-2-ylidene)bispyridine with CuCl2(1/1) [Formula IV Compound]
25 µg/ml, day 8
  CH4: 6 µ Moles
  H2: 17 µ Moles
  HAc (acetate): 20.38
  HBu (butyrate): 8.39
  HFo (formate): 2.20
  HPr (propionate): 14.71
  HiBu (isobutyrate): 2.73
  HiVal (isovalerate): 0
  Protein: 0 mg/mL
  Total: 48.40
25 µg/ml, day 9
  AA: 0.20 µ Moles/ml
  CH4: 28 µ Moles
  H2: 22 µ Moles
  HAc (acetate): 20.91
  HBu (butyrate): 5.82
  HFo (formate): 1.78
  HPr (propionate): 14.96
  HiBu (isobutyrate): 1.21
  HiVal (isovalerate): 0
  Protein: 0.03 mg/mL
  Total: 44.66
25 µg/ml, day 10
  AA: 0.30 µ Moles/ml
  CH4: 55 µ Moles
  H2: 8 µ Moles
  HAc (acetate): 21.76
  HBu (butyrate): 2.06
  HFo (formate): 1.00
  HPr (propionate): 13.79
  HiBu (isobutyrate): 0.01
  HiVal (isovalerate): 0
  Protein: 0 mg/mL
  Total: 38.62
25 µg/ml
  Caloric Value of CH3: 11.59
  Caloric Value of H2: 0.55
  Caloric Value of HAc: 94.73
  Caloric Value of HBu: 0
  Caloric Value of HFo: 0.28
  Caloric Value of HPr: 92.13
  Caloric Value of HiBu: 0
  Caloric Value of HiVal: 0
  Caloric Value, Total (VFA's): 187.14
  Total Cal in VFA & Gas: 199.28 cal
25 μg/ml
  CH4 produced on Day 10: 55
  H2 produced on Day 10: 8
  HAc (acetate) produced on Day 10: 452.4
  HBu (butyrate) produced on Day 10: 0
  HFo (formate) produced on Day 10: 4.40
  HPr (propionate) produced on Day 10: 252.4
  HiBu (isobutyrate) produced on Day 10: 0
  HiVal (isovalerate) produced on Day 10: 0
  Total VFA's produced on Day 10: 709.2
75 µg/ml, Day 10, initial feed gross energy 800 kcal
  Gross Cal Remaining in Feed: 350.70 cal
75 µg/ml, by day 10
  methane: inhibited completely
75 µg/ml, day 2
  AA: 0.18 µ Moles/ml
  CH4: 155 µ Moles
  H2: 0 µ Moles
  HAc (acetate): 33.48
  HBu (butyrate): 8.18
  HFo (formate): 0.95
  HPr (propionate): 11.10
  HiBu (isobutyrate): 0.95
  HiVal (isovalerate): 0.69
  Protein: 0 mg/mL
  Total: 55.34
75 µg/ml, day 3
  AA: 0.27 µ Moles/ml
  CH4: 71 µ Moles
  H2: 0 µ Moles
  HAc (acetate): 28.66
  HBu (butyrate): 15.10
  HFo (formate): 0.80
  HPr (propionate): 14.81
  HiBu (isobutyrate): 3.81
  HiVal (isovalerate): 0.44
  Protein: 0.04 mg/mL
  Total: 63.61
75 µg/ml, day 4
  CH4: 74 µ Moles
  H2: 0 µ Moles
  HAc (acetate): 27.47
  HBu (butyrate): 5.26
  HFo (formate): 1.29
  HPr (propionate): 18.71
  HiBu (isobutyrate): 0.95
  HiVal (isovalerate): 0.25
  Total: 53.92
75 µg/ml, day 5
  CH4: 74 µ Moles
  H2: 0 µ Moles
  HAc (acetate): 23.84
  HBu (butyrate): 4.59
  HFo (formate): 0.61
  HPr (propionate): 17.24
  HiBu (isobutyrate): 0.51
  HiVal (isovalerate): 0.26
  Total: 47.03
75 µg/ml, day 6
  AA: 0.20 µ Moles/ml
  CH4: 67 µ Moles
  H2: 0 µ Moles
  HAc (acetate): 25.01
  HBu (butyrate): 1.78
  HFo (formate): 0.51
  HPr (propionate): 16.43
  HiBu (isobutyrate): 0.39
  HiVal (isovalerate): 0.58
  Protein: 0.02 mg/mL
  Total: 44.68
75 µg/ml, day 7
  AA: 0.26 µ Moles/ml
  CH4: 3 µ Moles
  H2: 0 µ Moles
  HAc (acetate): 19.59
  HBu (butyrate): 9.9
  HFo (formate): 3.17
  HPr (propionate): 14.41
  HiBu (isobutyrate): 0.83
  HiVal (isovalerate): 0.10
  Protein: 0.01 mg/mL
  Total: 48.01
75 µg/ml, day 8
  AA: 0.31 µ Moles/ml
  CH4: 3 µ Moles
  H2: 0 µ Moles
  HAc (acetate): 17.86
  HBu (butyrate): 11.25
  HFo (formate): 3.52
  HPr (propionate): 14.08
  HiBu (isobutyrate): 2.61
  HiVal (isovalerate): 0
  Protein: 0 mg/mL
  Total: 49.31
75 µg/ml, day 9
  AA: 0.34 µ Moles/ml
  CH4: 0 µ Moles
  H2: 11 µ Moles
  HAc (acetate): 18.93
  HBu (butyrate): 9.21
  HFo (formate): 2.61
  HPr (propionate): 13.41
  HiBu (isobutyrate): 3.16
  HiVal (isovalerate): 0.26
  Protein: 0 mg/mL
  Total: 50.56
75 µg/ml, day 10
  AA: 0.47 µ Moles/ml
  CH4: 0 µ Moles
  H2: 14 µ Moles
  HAc (acetate): 18.71
  HBu (butyrate): 8.16
  HFo (formate): 2.52
  HPr (propionate): 14.57
  HiBu (isobutyrate): 3.74
  HiVal (isovalerate): 0.27
  Protein: 0 mg/mL
  Total: 47.97
75 µg/ml
  Caloric Value of CH3: 0
  Caloric Value of H2: 0.96
  Caloric Value of HAc: 77.39
  Caloric Value of HBu: 74.05
  Caloric Value of HFo: 3.06
  Caloric Value of HPr: 114.76
  Caloric Value of HiBu: 31.54
  Caloric Value of HiVal: 3.80
  Caloric Value, Total (VFA's): 304.60
  Total Cal in VFA & Gas: 305.56 cal
75 μg/ml
  CH4 produced on Day 10: 0
  H2 produced on Day 10: 14
  HAc (acetate) produced on Day 10: 369.6
  HBu (butyrate) produced on Day 10: 142.4
  HFo (formate) produced on Day 10: 48.8
  HPr (propionate) produced on Day 10: 314.4
  HiBu (isobutyrate) produced on Day 10: 86.4
  HiVal (isovalerate) produced on Day 10: 5.6
  Total VFA's produced on Day 10: 994.2
8.33 and 25 µg/ml
  Total energy in the end products: less than the control
8.33 and 75 µg/ml (not 25 µg/ml), versus control
  butyrate produced: more butyrate was produced
8.33 ppm
  methane: decreased slightly
25 and 75 ppm, first 6 days
  hydrogen production: no hydrogen production
  methane: slight decreases
25 and 75 ppm, seventh day
  hydrogen produced: some hydrogen produced
  methane: dropped drastically
75 ppm dosage level, Table 3
  increasing the number of calories available from the animals' feed: most effective amount
All dosage levels, Table 2
  shift in volatile fatty acids produced: desired shift in volatile fatty acids produced away from acetate towards propionate
[1]
  Acetate: decreased
  propionate: increased
Tests of Examples 2 and 3
  activity in rumen fluid batch culture tests: activity comparable to monensin
